Experimental data taken from patent US20180111893A1, “POLYCATIONIC AMPHIPHILES AND POLYMERS THEREOF AS ANTIMICROBIAL AGENTS AND METHODS USING SAME” (Temple University-Of The Commonwealth System of Higher …, priority 2015, published 2018).

Experiments:
Experiment in all cases: Minimum inhibitory concentration (MIC)
Assay type in all cases: cell-based
[1] = test system: Staphylococcus aureus (SA; MSSA SH1000); conditions: Table 6
Procedure: (§1) As used herein, the term “minimum inhibitory concentration (MIC)” refers to the lowest concentration of an antimicrobial agent that will inhibit the visible growth of a microorganism after overnight incubation. MIC values against bacteria, for example, the Gram-positive Staphylococcus aureus and Enterococcus faecalis and the Gram-negative Escherichia coli and Pseudomonas aeruginosa were determined by standard methods. See also P. A. Wayne, Methods for Dilution Antimicrobial Tests for Bacteria that Grow Aerobically; Approved Standard, Ninth Edition, 2012, CLSI Document M07-A9, Vol. 32 No. 2, which is incorporated by reference herein in its entirety.
(§2) Compounds were serially diluted two-fold from a 10% DMSO/aqueous stock solution to yield twelve test concentrations. Overnight S. aureus, E. faecalis, E. coli, P. aeruginosa, CA-MRSA, and HA-MRSA cultures diluted to ca. 10^6 cfu/mL in Mueller-Hinton media and 100 μL were inoculated into each well of a U-bottom 96-well plate (BD Biosciences, BD351177) containing 100 μL of compound solution. Plates were incubated statically at 37° C. for 72 hours upon which time wells were evaluated visually for bacterial growth. The MIC was determined as the lowest concentration of compound resulting in no bacterial growth visible to the naked eye, based on the majority of three independent experiments. Positive and negative DMSO/aqueous solution and media controls were conducted for each trial. See Peng et al., 2011, Chem. Comm. 47:4896-4898.
as §2, with “trial.” for “trial. See Peng et al., 2011, Chem. Comm. 47:4896-4898.”

[2] = test system: community-acquired methicillin-resistant Staphylococcus aureus CA-MRSA (USA300-0114); conditions: for MIC CA-MRSA: Table 6; for potency against CA-MRSA: dye-based monoQACs; for difference in MIC of monoQAC versus triscationic analog against CA-MRSA: monocationic n,0,0 vs triscationic n,1,1
Procedure: as §1, §2
as §2, with “trial.” for “trial. See Peng et al., 2011, Chem. Comm. 47:4896-4898.”

[3] = test system: hospital-acquired methicillin-resistant Staphylococcus aureus HA-MRSA (ATCC 33591); conditions: Table 6
Procedure: as §1, §2
as §2, with “trial.” for “trial. See Peng et al., 2011, Chem. Comm. 47:4896-4898.”

[4] = test system: Enterococcus faecalis (OG1RF); conditions: Table 6
Procedure: as §1, §2
as §2, with “trial.” for “trial. See Peng et al., 2011, Chem. Comm. 47:4896-4898.”

[5] = test system: Escherichia coli (MC4100); conditions: Table 6
Procedure: as §1, §2
as §2, with “trial.” for “trial. See Peng et al., 2011, Chem. Comm. 47:4896-4898.”

[6] = test system: Pseudomonas aeruginosa (PAO1); conditions: Table 6
Procedure: as §1, §2
as §2, with “trial.” for “trial. See Peng et al., 2011, Chem. Comm. 47:4896-4898.”

CCCCCCCCCCCC[N+](C)(C)CCC[N+](CCC[N+](C)(C)CCCCCCCCCCCC)(CCC[N+](C)(C)CCCCCCCCCCCC)Cc1ccccc1 [sT-12,12,12,Bn]
MIC SA [1]: 1 µM | MIC CA-MRSA [2]: 0.5 µM | MIC HA-MRSA [3]: 0.5 µM | MIC EF [4]: 0.5 µM | MIC EC [5]: 0.5 µM | MIC PA [6]: 2 µM

C=CC[N+](CCC[N+](C)(C)CCCCCCCCCCCCC)(CCC[N+](C)(C)CCCCCCCCCCCCC)CCC[N+](C)(C)CCCCCCCCCCCCC [sT-13,13,13,3A]
MIC SA [1]: 2 µM | MIC CA-MRSA [2]: 1 µM | MIC HA-MRSA [3]: 1 µM | MIC EF [4]: 1 µM | MIC EC [5]: 1 µM | MIC PA [6]: 4 µM

CCCCCCCCCCC[N+](C)(C)CCC[N+](C)(CCC[N+](C)(C)CCCCCCCCCCC)CCC[N+](C)(C)CCCCCCCCCCC.[Br-].[Br-].[Br-].[I-] [sT-11,11,11,1]
MIC SA [1]: 0.5 µM | MIC CA-MRSA [2]: ≤0.25 µM | MIC HA-MRSA [3]: 0.5 µM | MIC EF [4]: 0.25 µM | MIC EC [5]: 0.25 µM | MIC PA [6]: 1 µM

CCCCCCCCCCC[N+](C)(C)c1ccc(C(c2ccccc2)c2ccc(N(C)C)cc2)cc1 (centres unmarked) [LMG-11,0]
potency against CA-MRSA ([2]; in words): quite potent

CCCCCCCCCCC[N+](C)(C)CCC[N+](CCC[N+](C)(C)CCCCCCCCCCC)(CCC[N+](C)(C)CCCCCCCCCCC)Cc1ccccc1 [sT-11,11,11,Bn]
MIC SA [1]: 0.25 µM | MIC CA-MRSA [2]: ≤0.25 µM | MIC HA-MRSA [3]: ≤0.25 µM | MIC EF [4]: 0.5 µM | MIC EC [5]: 0.5 µM | MIC PA [6]: 1 µM

C=CC[N+](CCC[N+](C)(C)CCCCCCCCCCC)(CCC[N+](C)(C)CCCCCCCCCCC)CCC[N+](C)(C)CCCCCCCCCCC [sT-11,11,11,3A]
MIC SA [1]: 0.5 µM | MIC CA-MRSA [2]: 0.5 µM | MIC HA-MRSA [3]: 1 µM | MIC EF [4]: 0.5 µM | MIC EC [5]: 0.5 µM | MIC PA [6]: 1 µM

CCCCCCCCCCCCCC[N+](C)(C)CCCN(CCC[N+](C)(C)CCCCCCCCCCCCCC)CCC[N+](C)(C)CCCCCCCCCCCCCC [sT-14,14,14,0]
MIC SA [1]: 1 µM | MIC CA-MRSA [2]: 0.5 µM | MIC HA-MRSA [3]: 2 µM | MIC EF [4]: 2 µM | MIC EC [5]: 4 µM | MIC PA [6]: 16 µM

CCCCCCCC[N+](C)(C)CCCN(CCC[N+](C)(C)CCCCCCCC)CCC[N+](C)(C)CCCCCCCC [sT-8,8,8,0]
MIC SA [1]: 4 µM | MIC CA-MRSA [2]: 2 µM | MIC HA-MRSA [3]: 32 µM | MIC EF [4]: 32 µM | MIC EC [5]: 32 µM | MIC PA [6]: 125 µM

CCCCCCCCCC[N+](C)(C)c1ccc(C(c2ccc([N+](C)(C)C)cc2)c2ccc([N+](C)(C)C)cc2)cc1 [LCV-10,1,1]
increase in MIC against CA-MRSA compared to SA ([2]; dye-based QACs, bacteria with vs without efflux pumps): 32 fold

C=CC[N+](CCC[N+](C)(C)CCCCCCCCCCCCCCCCCC)(CCC[N+](C)(C)CCCCCCCCCCCCCCCCCC)CCC[N+](C)(C)CCCCCCCCCCCCCCCCCC [sT-18,18,18,3A]
MIC SA [1]: 2 µM | MIC CA-MRSA [2]: 2 µM | MIC HA-MRSA [3]: 16 µM | MIC EF [4]: 32 µM | MIC EC [5]: 32 µM | MIC PA [6]: 125 µM

C=CC[N+](CCC[N+](C)(C)CCCCCCCCCCCC)(CCC[N+](C)(C)CCCCCCCCCCCC)CCC[N+](C)(C)CCCCCCCCCCCC [sT-12,12,12,3A]
MIC SA [1]: 1 µM | MIC CA-MRSA [2]: ≤0.25 µM | MIC HA-MRSA [3]: 0.5 µM | MIC EF [4]: 0.5 µM | MIC EC [5]: 0.5 µM | MIC PA [6]: 2 µM

C=CC[N+](CCC[N+](C)(C)CCCCCCCC)(CCC[N+](C)(C)CCCCCCCC)CCC[N+](C)(C)CCCCCCCC [sT-8,8,8,3A]
MIC SA [1]: 1 µM | MIC CA-MRSA [2]: 1 µM | MIC HA-MRSA [3]: 8 µM | MIC EF [4]: 16 µM | MIC EC [5]: 4 µM | MIC PA [6]: 125 µM

CCCCCCCCCCCCCC[N+](C)(C)CCC[N+](C)(CCC[N+](C)(C)CCCCCCCCCCCCCC)CCC[N+](C)(C)CCCCCCCCCCCCCC [sT-14,14,14,1]
MIC SA [1]: 4 µM | MIC CA-MRSA [2]: 2 µM | MIC HA-MRSA [3]: 2 µM | MIC EF [4]: 2 µM | MIC EC [5]: 4 µM | MIC PA [6]: 32 µM

CCCCCCCCCC[N+](C)(C)c1ccc(C(c2ccccc2)c2ccc(N(C)C)cc2)cc1 (centres unmarked) [LMG-10,0]
potency against CA-MRSA ([2]; in words): quite potent

CCCCCCCCCCC[N+](C)(C)CCCN(CCC[N+](C)(C)CCCCCCCCCCC)CCC[N+](C)(C)CCCCCCCCCCC [sT-11,11,11,0]
MIC SA [1]: 0.5 µM | MIC CA-MRSA [2]: 0.5 µM | MIC HA-MRSA [3]: 0.5 µM | MIC EF [4]: 0.5 µM | MIC EC [5]: 0.5 µM | MIC PA [6]: 1 µM

CCCCCCCCCC[N+](C)(C)CCCN(CCC[N+](C)(C)CCCCCCCCCC)CCC[N+](C)(C)CCCCCCCCCC [sT-10,10,10,0]
MIC SA [1]: 0.5 µM | MIC CA-MRSA [2]: 0.5 µM | MIC HA-MRSA [3]: 0.5 µM | MIC EF [4]: 0.5 µM | MIC EC [5]: 1 µM | MIC PA [6]: 2 µM

CCCCCCCCCCCCCCCCCC[N+](C)(C)CCCN(CCC[N+](C)(C)CCCCCCCCCCCCCCCCCC)CCC[N+](C)(C)CCCCCCCCCCCCCCCCCC [sT-18,18,18,0]
MIC SA [1]: 8 µM | MIC CA-MRSA [2]: 4 µM | MIC HA-MRSA [3]: 32 µM | MIC EF [4]: 16 µM | MIC EC [5]: 32 µM | MIC PA [6]: 63 µM

CCCCCCCCCC[N+](C)(C)CCC[N+](C)(CCC[N+](C)(C)CCCCCCCCCC)CCC[N+](C)(C)CCCCCCCCCC [sT-10,10,10,1]
MIC SA [1]: 0.5 µM | MIC CA-MRSA [2]: 0.5 µM | MIC HA-MRSA [3]: 0.5 µM | MIC EF [4]: 0.5 µM | MIC EC [5]: 0.5 µM | MIC PA [6]: 2 µM

CCCCCCCCCCCCC[N+](C)(C)CCCN(CCC[N+](C)(C)CCCCCCCCCCCCC)CCC[N+](C)(C)CCCCCCCCCCCCC [sT-13,13,13,0]
MIC SA [1]: 1 µM | MIC CA-MRSA [2]: 0.5 µM | MIC HA-MRSA [3]: 1 µM | MIC EF [4]: 1 µM | MIC EC [5]: 1 µM | MIC PA [6]: 8 µM

CCCCCCCC[N+](C)(C)CCC[N+](C)(CCC[N+](C)(C)CCCCCCCC)CCC[N+](C)(C)CCCCCCCC [sT-8,8,8,1]
MIC SA [1]: 0.5 µM | MIC CA-MRSA [2]: 1 µM | MIC HA-MRSA [3]: 16 µM | MIC EF [4]: 16 µM | MIC EC [5]: 4 µM | MIC PA [6]: 250 µM

CCCCCCCCCCCCCCCC[N+](CC)(CC)c1ccc(N(c2ccc(N(CC)CC)cc2)c2ccc(N(CC)CC)cc2)cc1 [TET-16,0,0]
MIC against CA-MRSA ([2]; dye-based QACs): 250 µM | difference in MIC of monoQAC versus triscationic analog against CA-MRSA [2]: 500 ×

CCCCCCCCCCCCCCCCCC[N+](C)(C)c1ccc(C(c2ccc(N(C)C)cc2)c2ccc(N(C)C)cc2)cc1 [LCV-18,0,0]
difference in MIC of monoQAC versus triscationic analog against CA-MRSA [2]: same differential

CCCCCCCCCCCCCCCC[N+](CC)(CC)c1ccc(N(c2ccc([N+](C)(CC)CC)cc2)c2ccc([N+](C)(CC)CC)cc2)cc1 [TET-16,1,1]
MIC against CA-MRSA ([2]; dye-based QACs): 0.5 µM | difference in MIC/activity between SA and CA-MRSA ([2]; dye-based QACs, in words): no difference in activity
